Data set [1] in a line: Determination of the microsomal half-life / microsomal clearance, human liver microsomes. The note with it: 0.5 μM test substance, 0.25 mg microsomal protein/ml, pH 7.4, 37° C., NADPH. (Liver microsomes are a subcellular fraction often used to study metabolism.)
Protocol: (§1) The test substances were incubated in a concentration of 0.5 μM as follows:
(§2) 0.5 μM test substance are preincubated together with liver microsomes from different species (from rat, human or other species) (0.25 mg of microsomal protein/ml) in 0.05 M potassium phosphate buffer of pH 7.4 in microtiter plates at 37° C. for 5 min. The reaction is started by adding NADPH (1 mg/mL). After 0, 5, 10, 15, 20 and 30 min, 50 μl aliquots are removed, and the reaction is immediately stopped and cooled with the same volume of acetonitrile. The samples are frozen until analyzed. The remaining concentration of undegraded test substance is determined by MSMS. The half-life (T½) is determined from the gradient of the signal of test substance/unit time plot, it being possible to calculate the half-life of the test substance, assuming first order kinetics, from the decrease in the concentration of the compound with time. The microsomal clearance (mCl) is calculated from mCl=ln 2/T½/(content of microsomal protein in mg/ml)×1000 [ml/min/mg]
Data set [2] can be described thus: Determination of the microsomal half-life / microsomal clearance, rat liver microsomes. The settings on record: 0.5 μM test substance, 0.25 mg microsomal protein/ml, pH 7.4, 37° C., NADPH.
Protocol: as §1, §2
For a further data set, the target named is PDE10A (UniProt Q9Y233). In words: Measurement of PDE activity (HTRF cAMP assay, recombinant enzyme). Type of data set: biochemical. The note with it: 20 nM cyclic nucleotide substrate, 60 minutes at 29 C. As to the method: The recombinant PDE proteins are used in in vitro enzymatic reaction for measurement of PDE activity. These recombinant proteins, including PDE10A (human, rat and mouse PDE10) and isoforms of PDEs 1, 3, 4, and 5, were purchased from commercial vendor BPS Bioscience. The enzymatic activity of PDEs was determined by cAMP measurement kit from CisBio (IBA) using HTRF technology.
The PDE enzymatic reaction was carried out in assay buffer (20 mM Tris-HCl pH7.5, 10 mM MgCl2, 0.1% bovine serum albumin) containing enzyme and substrate. The PDE enzymes concentration ranged from 10 pM-250 pM, depending on each enzyme's specific activity. The substrate cyclic nucleotide (cAMP or cGMP) concentration used in the assay was 20 nM for PDE10, and 100 nM for other PDEs. The inhibitory effect of compound was determined by incubating various concentration of inhibitor in the enzymatic assay. Typically, compound was serial diluted in DMSO then further diluted in assay buffer. Next, the compound at varying concentration was mixed with PDE enzyme. The reaction was initiated by addition of cyclic nucleotide substrate, and incubated for 60 minutes at 29 C. The reaction was stopped by addition of lysis buffer from assay kit. The cAMP-d2 and anti-cAMP cryptate in the lysis buffer detected the level of cAMP left from the PDE hydrolysis reaction. The PDE activity is reversely correlated with the amount of cAMP left in the reaction and can be converted to the percent activity of an uninhibited control (100%). Thus, IC50 value of inhibitor can be obtained by plotting inhibitor concentration against PDE activity at that concentration.

pIC50: −log10 of the molar value.

In general, pIC50 refers to the negative decadic logarithm of the IC50, by convention in mol/L.

As to `Cn1cc2c(c(-c3ccc(F)cc3)c1=O)C(=O)N(CCc1ccc3ccccc3n1)C2` [Example 27, 7-(4-Fluoro-phenyl)-5-methyl-2-(2-quinolin-2-yl-ethyl)-3,5-dihydro-2H-pyrrolo[3,4-c]pyridine-1,6-dione], in data set [1], the “Human mCl” value is “+++ (+++ <10 μl min^−1 mg^−1)”. Further, the “Rat mCl” value in data set [2] was “++ (++: <100 μl min^−1 mg^−1)”. For the same compound, the pIC50 at PDE10A was 6.70 to 7.00.
`Cn1cc2c(c(N3CCOCC3)c1=O)C(=O)N(CC(F)(F)c1ccc3ccccc3n1)C2` [Example 34, 2-(2,2-Difluoro-2-quinolin-2-yl-ethyl)-5-methyl-7-morpholin-4-yl-3,5-dihydro-2H-pyrrolo[3,4-c]pyridine-1,6-dione]: in data set [1], the “Human mCl” value is “++ (++: <100 μl min^−1 mg^−1)”. Besides, the “Rat mCl” value in data set [2] is on record as “++ (++: <100 μl min^−1 mg^−1)”. Moreover, at PDE10A, the pIC50 was more than 7.00.
In the case of `CCn1cc2c(c(N3CCOCC3)c1=O)C(=O)N(CCc1ccc3ccccc3n1)C2` [Example 16, 5-Ethyl-7-morpholin-4-yl-2-(2-quinolin-2-yl-ethyl)-3,5-dihydro-2H-pyrrolo[3,4-c]pyridine-1,6-dione], in data set [1], the “Human mCl” value is “++ (++: <100 μl min^−1 mg^−1)”. In data set [2], the “Rat mCl” value is reported as “++ (++: <100 μl min^−1 mg^−1)”. Also, the pIC50 on PDE10A is more than 7.00.
`COCCn1cc2c(c(N3CCOCC3)c1=O)C(=O)N(CCc1ccc3ccccc3n1)C2` [Example 18, 5-(2-Methoxy-ethyl)-7-morpholin-4-yl-2-(2-quinolin-2-yl-ethyl)-3,5-dihydro-2H-pyrrolo[3,4-c]pyridine-1,6-dione]: in data set [1], the “Human mCl” value is listed as “++ (++: <100 μl min^−1 mg^−1)”. Further, the “Rat mCl” value in data set [2] is on record as “++ (++: <100 μl min^−1 mg^−1)”. Also, the pIC50 at PDE10A is more than 7.00.
For the compound `Cn1cc2c(c(N3CCOCC3)c1=O)C(=O)N(CCc1ccc3ccccc3n1)C2(F)F` [Example 35, 3,3-Difluoro-5-methyl-7-morpholin-4-yl-2-(2-quinolin-2-yl-ethyl)-3,5-dihydro-2H-pyrrolo[3,4-c]pyridine-1,6-dione], the pIC50 at PDE10A was more than 7.00.
`Cn1nccc1-c1c2c(cn(C)c1=O)CN(CCc1ccc3ccccc3n1)C2=O` [Example 30, 5-Methyl-7-(2-methyl-2H-pyrazol-3-yl)-2-(2-quinolin-2-yl-ethyl)-3,5-dihydro-2H-pyrrolo[3,4-c]pyridine-1,6-dione]: the negative-log IC50 (pIC50) at PDE10A is less than 6.30.
On to `CN1CCN(c2c3c(cn(C)c2=O)C(=O)N(CCc2ccc4ccccc4n2)C3)CC1` [Example 7, 5-Methyl-7-(4-methyl-piperazin-1-yl)-2-(2-quinolin-2-yl-ethyl)-1,2-dihydro-5H-pyrrolo[3,4-c]pyridine-3,6-dione], for which the “Human mCl” value in data set [1] was “++ (++: <100 μl min^−1 mg^−1)”. For the same compound, in data set [2], the “Rat mCl” value is given as “+++ (+++ <10 μl min^−1 mg^−1)”. For the same compound, the pIC50 on PDE10A is less than 6.30.
In the case of `Cn1cc2c(c(N3CCOCC3)c1=O)CN(CCc1ccc3ccccc3n1)C2=O` [Example 6, 5-Methyl-7-morpholin-4-yl-2-(2-quinolin-2-yl-ethyl)-1,2-dihydro-5H-pyrrolo[3,4-c]pyridine-3,6-dione], the “Human mCl” value in data set [1] is listed as “++ (++: <100 μl min^−1 mg^−1)”. The “Rat mCl” value in data set [2] is reported as “++ (++: <100 μl min^−1 mg^−1)”. The pIC50 on PDE10A was less than 6.30.
For `Cn1cc2c(c(N3CCOCC3)c1=O)C(=O)N(CCc1cn3ccccc3n1)C2` [Example 22, 2-(2-Imidazo[1,2-a]pyridin-2-yl-ethyl)-5-methyl-7-morpholin-4-yl-3,5-dihydro-2H-pyrrolo[3,4-c]pyridine-1,6-dione], the “Human mCl” value in data set [1] is recorded as “+++ (+++ <10 μl min^−1 mg^−1)”. The “Rat mCl” value in data set [2] is “++ (++: <100 μl min^−1 mg^−1)”. Besides, the pIC50 at PDE10A was more than 7.00.
`Cn1cc2c(c(N3CCOCC3)c1=O)C(=O)N(CCc1nc3n(n1)CCCC3)C2` [Example 25, 5-Methyl-7-morpholin-4-yl-2-[2-(5,6,7,8-tetrahydro-[1,2,4]triazolo[1,5-a]pyridin-2-yl)-ethyl]-3,5-dihydro-2H-pyrrolo[3,4-c]pyridine-1,6-dione]: the “Human mCl” value in data set [1] is “+++ (+++ <10 μl min^−1 mg^−1)”. In addition, in data set [2], the “Rat mCl” value is “+++ (+++ <10 μl min^−1 mg^−1)”. Besides, on PDE10A, the negative-log IC50 (pIC50) was less than 6.30.
Consider “5-Methyl-7-morpholin-4-yl-2-(2-[1,2,4]triazolo[1,5-a]pyridin-2-yl-ethyl)-5H-pyrrolo[3,4-c]pyridine-1,3,6-trione [Example 5]”, for which the pIC50 at PDE10A is less than 6.30.
For the compound `O=C1c2c(c[nH]c(=O)c2N2CCOCC2)CN1CCc1ccc2ccccc2n1` [Example 15, 7-Morpholin-4-yl-2-(2-quinolin-2-yl-ethyl)-3,5-dihydro-2H-pyrrolo[3,4-c]pyridine-1,6-dione], the “Human mCl” value in data set [1] is on record as “++ (++: <100 μl min^−1 mg^−1)”. The “Rat mCl” value in data set [2] was “++ (++: <100 μl min^−1 mg^−1)”. Moreover, the pIC50 at PDE10A was more than 7.00.
On to `Cn1cc2c(c(-c3ccncc3)c1=O)C(=O)N(CCc1ccc3ccccc3n1)C2` [Example 11, 5-Methyl-7-pyridin-4-yl-2-(2-quinolin-2-yl-ethyl)-3,5-dihydro-2H-pyrrolo[3,4-c]pyridine-1,6-dione], for which the pIC50 on PDE10A was 6.70 to 7.00.
Consider `CN1CCN(c2c3c(cn(C)c2=O)CN(CCc2ccc4ccccc4n2)C3=O)CC1` [Example 10, 5-Methyl-7-(4-methyl-piperazin-1-yl)-2-(2-quinolin-2-yl-ethyl)-3,5-dihydro-2H-pyrrolo[3,4-c]pyridine-1,6-dione], for which the “Human mCl” value in data set [1] is “+++ (+++ <10 μl min^−1 mg^−1)”. Besides, the “Rat mCl” value in data set [2] is listed as “+++ (+++ <10 μl min^−1 mg^−1)”.
Take `COc1ccc(-c2c3c(cn(C)c2=O)CN(CCc2ccc4ccccc4n2)C3=O)cc1` [Example 31, 7-(4-Methoxy-phenyl)-5-methyl-2-(2-quinolin-2-yl-ethyl)-3,5-dihydro-2H-pyrrolo[3,4-c]pyridine-1,6-dione]: in data set [1], the “Human mCl” value is “++ (++: <100 μl min^−1 mg^−1)”. The “Rat mCl” value in data set [2] was “++ (++: <100 μl min^−1 mg^−1)”. In addition, the negative-log IC50 (pIC50) on PDE10A was 6.70 to 7.00.
`Cn1cc2c(c(N3CCOCC3)c1=O)C(=O)N(CCc1nc3ccccc3n1C)C2` [Example 20, 5-Methyl-2-[2-(1-methyl-1H-benzoimidazol-2-yl)-ethyl]-7-morpholin-4-yl-3,5-dihydro-2H-pyrrolo[3,4-c]pyridine-1,6-dione]: the “Human mCl” value in data set [1] was “++ (++: <100 μl min^−1 mg^−1)”. Further, the “Rat mCl” value in data set [2] is “++ (++: <100 μl min^−1 mg^−1)”. Further, on PDE10A, the pIC50 was more than 7.00.
As to `Cn1cc2c(c(-c3cncnc3)c1=O)C(=O)N(CCc1ccc3ccccc3n1)C2` [Example 28, 5-Methyl-7-pyrimidin-5-yl-2-(2-quinolin-2-yl-ethyl)-3,5-dihydro-2H-pyrrolo[3,4-c]pyridine-1,6-dione], the “Human mCl” value in data set [1] is on record as “++ (++: <100 μl min^−1 mg^−1)”. For the same compound, in data set [2], the “Rat mCl” value was “++ (++: <100 μl min^−1 mg^−1)”. At PDE10A, the pIC50 was 6.70 to 7.00.
As to `Cn1cc2c(c(-c3cn[nH]c3)c1=O)C(=O)N(CCc1ccc3ccccc3n1)C2` [Example 29, 5-Methyl-7-(1H-pyrazol-4-yl)-2-(2-quinolin-2-yl-ethyl)-3,5-dihydro-2H-pyrrolo[3,4-c]pyridine-1,6-dione], the “Human mCl” value in data set [1] is reported as “+++ (+++ <10 μl min^−1 mg^−1)”. For the same compound, the “Rat mCl” value in data set [2] is on record as “++ (++: <100 μl min^−1 mg^−1)”. The pIC50 at PDE10A is less than 6.30.
Regarding `Cn1cc2c(c(-c3ccncc3)c1=O)C(=O)N(CCc1nc3ccccc3s1)C2` [Example 32, 2-[2-(1,3-benzothiazol-2-yl)ethyl]-5-methyl-7-(4-pyridyl)-3,5-dihydro-2H-pyrrolo[3,4-c]pyridine-1,6-dione], in data set [1], the “Human mCl” value is “+++ (+++ <10 μl min^−1 mg^−1)”. Besides, the “Rat mCl” value in data set [2] is “+++ (+++ <10 μl min^−1 mg^−1)”. In addition, at PDE10A, the negative-log IC50 (pIC50) was less than 6.30.
`Cn1cc2c(c(N3CCOCC3)c1=O)C(=O)N(CCc1ccc3ccccc3n1)C2=O` [Example 1, 5-Methyl-7-morpholin-4-yl-2-(2-quinolin-2-yl-ethyl)-5H-pyrrolo[3,4-c]pyridine-1,3,6-trione]: in data set [1], the “Human mCl” value is recorded as “++ (++: <100 μl min^−1 mg^−1)”. The “Rat mCl” value in data set [2] was “++ (++: <100 μl min^−1 mg^−1)”. For the same compound, the pIC50 at PDE10A is more than 7.00.
As to `Cn1cc2c(c(-c3ccncc3)c1=O)CN(CCc1ccc3ccccc3n1)C2=O` [Example 8, 5-Methyl-7-pyridin-4-yl-2-(2-quinolin-2-yl-ethyl)-1,2-dihydro-5H-pyrrolo[3,4-c]pyridine-3,6-dione], the pIC50 on PDE10A is less than 6.30.
For `CC(C)n1cc2c(c(N3CCOCC3)c1=O)C(=O)N(CCc1ccc3ccccc3n1)C2` [Example 17, 5-Isopropyl-7-morpholin-4-yl-2-(2-quinolin-2-yl-ethyl)-3,5-dihydro-2H-pyrrolo[3,4-c]pyridine-1,6-dione], the “Human mCl” value in data set [1] is given as “++ (++: <100 μl min^−1 mg^−1)”. In addition, the “Rat mCl” value in data set [2] is reported as “++ (++: <100 μl min^−1 mg^−1)”. In addition, on PDE10A, the pIC50 is more than 7.00.
As to “2-(2-Imidazo[1,2-a]pyridin-2-yl-ethyl)-5-methyl-7-morpholin-4-yl-3,5-dihydro-2H-pyrrolo[3,4-c]pyridine-1,6-dione [Example 23]”, on PDE10A, the pIC50 was less than 6.30.

The values above are taken from US9475808B2, “Inhibitor compounds of phosphodiesterase type 10A” (AbbVie Deutschland GmbH & Co. KG, priority 2013, dated 2016).
